The text below walks through data of paper PMC12442639, “A Two‐Protein Chemoreceptor Complex Regulates Oxygen Thresholds in Bacterial Magneto‐Aerotaxis” (Advanced Science, 2025).

For this assay, the target named is T1, CetB2 (His6-CetB2) (Magnetospirillum gryphiswaldense, UniProt A0ACM8ULG3).
T1 construct: N-terminal His6 tag (pET28a), expressed in E. coli Rosetta(DE3) pLysSRARE, Ni-agarose purified; predicted FAD-site residues His54, Asn55, Arg58, Phe67, Trp71, Asn86, Val100, Arg117
In words: LC-MS of purified protein; UV/vis spectroscopy; cyclic voltammetry. It is filed as binding. The conditions noted are these: non-covalently bound, co-purified FAD; UV/vis in 50 mM Na-phosphate pH 8, 300 mM NaCl, 5% glycerol.

SMILES strings stand for the structures.

T1 sequence (A0ACM8ULG3 entry or part of it): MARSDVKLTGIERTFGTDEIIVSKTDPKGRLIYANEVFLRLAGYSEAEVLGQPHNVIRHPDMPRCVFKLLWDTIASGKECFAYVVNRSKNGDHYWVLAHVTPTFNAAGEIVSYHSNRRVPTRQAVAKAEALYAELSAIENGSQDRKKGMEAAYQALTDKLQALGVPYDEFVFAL

On to `Cc1cc2nc3c(=O)[nH]c(=O)nc-3n(C[C@H](O)[C@H](O)[C@H](O)COP(=O)(O)OP(=O)(O)OC[C@H]3O[C@@H](n4cnc5c(N)ncnc54)[C@H](O)[C@@H]3O)c2cc1C` [FAD, flavin adenine dinucleotide], for which the “LC-MS of purified protein; UV/vis spectroscopy; cyclic voltammetry” value was “indicates that FAD was non‐covalently bound to the protein and released during chromatographic separation”.
